Consider 26 compounds from ChEMBL document CHEMBL1201862, “PubChem BioAssay data set” (2004).

The target of one test is T1, Aminopeptidase N (Plasmodium falciparum FcB1/Columbia, UniProt O96935).
T1 sequence (O96935 whole entry): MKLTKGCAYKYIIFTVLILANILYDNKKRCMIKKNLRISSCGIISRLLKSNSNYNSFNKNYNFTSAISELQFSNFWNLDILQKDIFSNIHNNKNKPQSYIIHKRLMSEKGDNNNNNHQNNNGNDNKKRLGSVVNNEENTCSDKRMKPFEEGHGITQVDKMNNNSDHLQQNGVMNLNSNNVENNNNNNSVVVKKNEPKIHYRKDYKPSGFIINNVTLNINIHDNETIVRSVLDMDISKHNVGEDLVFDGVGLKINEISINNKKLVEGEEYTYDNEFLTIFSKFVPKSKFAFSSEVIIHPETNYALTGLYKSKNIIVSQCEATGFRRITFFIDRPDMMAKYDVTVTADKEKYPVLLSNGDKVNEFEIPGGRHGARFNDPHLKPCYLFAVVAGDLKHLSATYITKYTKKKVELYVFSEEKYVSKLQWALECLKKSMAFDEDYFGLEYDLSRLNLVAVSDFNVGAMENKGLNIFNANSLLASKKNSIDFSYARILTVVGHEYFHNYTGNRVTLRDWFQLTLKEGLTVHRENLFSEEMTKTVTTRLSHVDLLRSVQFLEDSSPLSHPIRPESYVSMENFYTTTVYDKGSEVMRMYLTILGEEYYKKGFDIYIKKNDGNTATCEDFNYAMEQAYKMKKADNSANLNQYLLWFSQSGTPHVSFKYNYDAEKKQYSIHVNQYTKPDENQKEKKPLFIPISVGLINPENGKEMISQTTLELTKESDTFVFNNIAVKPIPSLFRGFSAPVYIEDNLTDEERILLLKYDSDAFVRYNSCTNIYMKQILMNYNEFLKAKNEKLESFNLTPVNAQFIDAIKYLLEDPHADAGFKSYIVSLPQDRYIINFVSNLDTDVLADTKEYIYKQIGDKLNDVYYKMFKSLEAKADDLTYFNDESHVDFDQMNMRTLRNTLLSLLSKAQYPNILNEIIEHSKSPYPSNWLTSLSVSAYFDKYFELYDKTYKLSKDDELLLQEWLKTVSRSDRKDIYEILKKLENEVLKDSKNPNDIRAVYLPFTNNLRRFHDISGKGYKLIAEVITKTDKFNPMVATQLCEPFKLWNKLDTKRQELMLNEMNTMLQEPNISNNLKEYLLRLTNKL
Description: P. falciparum M1AAP inhibitors, biochemical, fluorogenic H-Leu-NHMec substrate, 1536-well (AID 1445). Also noted: species or system Plasmodium falciparum 3D7, 3D7.

The next test has as its system INS1. Nature of the test: beta cell apoptosis inhibitors, cytokine rescue, dose response, luminescence, retest (AID 449756).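 Also: cell death triggered by IL-1 beta plus TNF-alpha plus IFN-gamma mixture; protective hits raise ATP signal compared with cytokine alone wells.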 The class given is functional, cell-based. Particulars: Rattus norvegicus.
Test [1] is described as follows: Luminescence Cell-Based Dose Retest to Confirm Inhibitors of Cancer Stem Cells. [Related pubchem assays (depositor defined):AID2717, AID2721]. Particulars: Homo sapiens. It is filed as functional, Homo sapiens.
A further test addresses Nonstructural protein 1 (Influenza A virus, UniProt Q194T2). It is filed as functional, Influenza A virus (A/California/07/2009(H1N1)).
Test [2] in a line: cytotoxicity in HEK-293T cells, dose response, cytotoxicity control for TCR NF-kB inhibitor project, luminescence, T-cell screen hits (AID 489026).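 Also: cells exposed to compound about 14 hours before the viability readout.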 It is filed as functional, cell-based.
Another test deals with T2, Estrogen receptor (Homo sapiens, UniProt P03372).
T2 sequence (P03372 whole entry): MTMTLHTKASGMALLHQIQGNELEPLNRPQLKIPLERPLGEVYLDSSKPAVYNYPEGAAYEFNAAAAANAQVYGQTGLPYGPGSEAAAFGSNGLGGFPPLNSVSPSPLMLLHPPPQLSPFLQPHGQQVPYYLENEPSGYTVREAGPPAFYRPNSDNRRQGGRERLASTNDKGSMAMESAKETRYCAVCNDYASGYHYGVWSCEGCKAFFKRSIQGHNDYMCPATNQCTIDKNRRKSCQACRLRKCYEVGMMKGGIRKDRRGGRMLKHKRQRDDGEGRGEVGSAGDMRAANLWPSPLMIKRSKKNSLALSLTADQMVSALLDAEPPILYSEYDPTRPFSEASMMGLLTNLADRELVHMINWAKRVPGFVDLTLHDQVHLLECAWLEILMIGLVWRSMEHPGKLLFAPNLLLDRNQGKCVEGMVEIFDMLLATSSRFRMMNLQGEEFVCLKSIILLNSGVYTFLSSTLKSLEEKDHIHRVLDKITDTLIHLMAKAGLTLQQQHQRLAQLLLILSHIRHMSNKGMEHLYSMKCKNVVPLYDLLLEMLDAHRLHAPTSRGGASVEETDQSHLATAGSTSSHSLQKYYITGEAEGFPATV

Test [3] can be described thus: HEK293 cell cytotoxicity, dose response, cytotoxicity control, plate reader, cherry-picked samples (AID 743446). It is filed as functional, cell-based.
A short description of test [4]: MC4R antagonists, dose response, counter-screen for LGR2 antagonist project, cell-based, plate reader, cherry pick (AID 743444).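 Also: transfected HEK 293 cells stimulated with alpha-MSH peptide; potency of inhibitors of the alpha-MSH evoked signal.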 The class given is functional.
A further test deals with Mu-type opioid receptor (Homo sapiens, UniProt P35372). The class given is functional, cell-based.
Test [5] addresses 5-hydroxytryptamine receptor 2A (Mus musculus, UniProt P35363). The class given is functional, cell-based.
For test [6], the target named is T3, Small ubiquitin-related modifier 1 (Homo sapiens, UniProt P63165). Nature of the test: inhibitors of SUMO1 partner interactions, dose response, biochemical, FRET (AID 624383). The class given is functional. Particulars: read-out: IC50_Mean.
The target in test [7] is T3, Small ubiquitin-related modifier 1. Description: inhibitors of SUMO1 peptide binding, dose response, biochemical, fluorescence polarization, uHTS hits (AID 624382). It is filed as functional. Particulars: read-out: IC50_Mean.
Test [8] addresses T4, Carboxy-terminal domain RNA polymerase II polypeptide A small phosphatase 1 (Homo sapiens, UniProt Q9GZU7).
T4 sequence (Q9GZU7 whole entry): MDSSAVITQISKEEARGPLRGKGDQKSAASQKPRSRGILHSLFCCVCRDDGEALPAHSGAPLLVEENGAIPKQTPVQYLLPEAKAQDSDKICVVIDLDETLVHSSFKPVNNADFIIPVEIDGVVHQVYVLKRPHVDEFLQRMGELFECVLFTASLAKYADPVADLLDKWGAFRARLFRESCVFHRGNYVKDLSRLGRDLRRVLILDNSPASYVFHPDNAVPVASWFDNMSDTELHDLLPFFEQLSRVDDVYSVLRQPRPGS
Nature of the test: inhibitors of CTDSP1, concentration-response testing, biochemical assay, absorbance-based, actives from ultra-high-throughput screening (AID 540297). The class given is functional.

Test [9] in a line: P. falciparum Dd2 growth inhibitors, dose response, SYBR Green, cherry-picked samples (AID 1159567). The class given is functional, cell-based.
A short description of test [10]: HepG2 cell cytotoxicity, dose response, cytotoxicity control, cherry-picked samples (AID 1159577). The class given is functional, cell-based.
Test [11] can be described thus: control 3'UTR Renilla luciferase suppression, dose response, counter-screen for Shn3 inhibitor project, cell-based, Clone20-Shn3RL, cherry-picked (AID 624133). The class given is functional.
Test [12] can be described thus: Shn3 3'UTR reporter inhibitors, dose response, cell-based, Clone20 osteoblasts, firefly luciferase, cherry-picked (AID 624132).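 Also: firefly luciferase luminescence from reporter carrying the Shn3 3'UTR in osteoblasts.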 It is filed as functional.
Test [13] is described as follows: HepG2 cell cytotoxicity, dose response, cytotoxicity control for Shn3 inhibitor project, CellTiter-Glo, cherry-picked (AID 624134). The class given is functional, cell-based.
In test [14] the target is Voltage-dependent T-type calcium channel subunit alpha-1H (Homo sapiens, UniProt O95180). It is filed as functional.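 Also: channel activity triggered by adding a high calcium stimulation buffer.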
A further test has as its target Estrogen receptor beta (Homo sapiens, UniProt Q92731). Nature of the test: ERβ–SRC-3 coactivator interaction inhibitors, confirmation, orthogonal assay, biochemical, ELISA, streptavidin-HRP readout (AID 1060).
The nature of test [15]: inhibitors of SNCA 5'UTR-driven reporter translation, confirmation, H4 neuroglioma cells, luminescence (AID 1988). It is filed as functional, cell-based.
A short description of test [16]: Luminescence Cell-Based Dose Response HTS to Identify Inhibitors of 5'UTR Stem-Loop Driven Prion Protein mRNA Translation in H4 Neuroglioblastoma Cells. [Related pubchem assays: 1827 (Project Summary), 1813 (Primary HTS)]. It is filed as functional.
Test [17] is described as follows: inhibitors of firefly luciferase expression or activity, dose response, H4 neuroglioma cells, luminescence (AID 1990). It is filed as functional, cell-based.
Test [18] can be described thus: LGR2 antagonists, dose response, cell-based, HEK293, CRE-luciferase reporter, cherry pick, set 2 (AID 743343).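 Also: transfected cells were stimulated with diluted bursicon conditioned medium after compound addition.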 It is filed as functional.
Test [19] deals with T5, SUMO-activating enzyme (Homo sapiens, UniProt Q9UBT2). Nature of the test: SUMOylation inhibitor hit validation, confirmation, SUMOylation inhibitor project, biochemical, AlphaScreen (AID 2018). It is filed as functional.
For test [20], the target named is T5, SUMO-activating enzyme. Description: inhibitors of in vitro SUMOylation cascade, primary screen, biochemical, HTRF, uHTS (AID 2006). The class given is protein-complex assay.

The structures appear in SMILES notation. Calls of active or inactive are those of the source. Some results are limits rather than exact numbers.

Sequence of Voltage-dependent T-type calcium channel subunit alpha-1H (O95180 whole entry): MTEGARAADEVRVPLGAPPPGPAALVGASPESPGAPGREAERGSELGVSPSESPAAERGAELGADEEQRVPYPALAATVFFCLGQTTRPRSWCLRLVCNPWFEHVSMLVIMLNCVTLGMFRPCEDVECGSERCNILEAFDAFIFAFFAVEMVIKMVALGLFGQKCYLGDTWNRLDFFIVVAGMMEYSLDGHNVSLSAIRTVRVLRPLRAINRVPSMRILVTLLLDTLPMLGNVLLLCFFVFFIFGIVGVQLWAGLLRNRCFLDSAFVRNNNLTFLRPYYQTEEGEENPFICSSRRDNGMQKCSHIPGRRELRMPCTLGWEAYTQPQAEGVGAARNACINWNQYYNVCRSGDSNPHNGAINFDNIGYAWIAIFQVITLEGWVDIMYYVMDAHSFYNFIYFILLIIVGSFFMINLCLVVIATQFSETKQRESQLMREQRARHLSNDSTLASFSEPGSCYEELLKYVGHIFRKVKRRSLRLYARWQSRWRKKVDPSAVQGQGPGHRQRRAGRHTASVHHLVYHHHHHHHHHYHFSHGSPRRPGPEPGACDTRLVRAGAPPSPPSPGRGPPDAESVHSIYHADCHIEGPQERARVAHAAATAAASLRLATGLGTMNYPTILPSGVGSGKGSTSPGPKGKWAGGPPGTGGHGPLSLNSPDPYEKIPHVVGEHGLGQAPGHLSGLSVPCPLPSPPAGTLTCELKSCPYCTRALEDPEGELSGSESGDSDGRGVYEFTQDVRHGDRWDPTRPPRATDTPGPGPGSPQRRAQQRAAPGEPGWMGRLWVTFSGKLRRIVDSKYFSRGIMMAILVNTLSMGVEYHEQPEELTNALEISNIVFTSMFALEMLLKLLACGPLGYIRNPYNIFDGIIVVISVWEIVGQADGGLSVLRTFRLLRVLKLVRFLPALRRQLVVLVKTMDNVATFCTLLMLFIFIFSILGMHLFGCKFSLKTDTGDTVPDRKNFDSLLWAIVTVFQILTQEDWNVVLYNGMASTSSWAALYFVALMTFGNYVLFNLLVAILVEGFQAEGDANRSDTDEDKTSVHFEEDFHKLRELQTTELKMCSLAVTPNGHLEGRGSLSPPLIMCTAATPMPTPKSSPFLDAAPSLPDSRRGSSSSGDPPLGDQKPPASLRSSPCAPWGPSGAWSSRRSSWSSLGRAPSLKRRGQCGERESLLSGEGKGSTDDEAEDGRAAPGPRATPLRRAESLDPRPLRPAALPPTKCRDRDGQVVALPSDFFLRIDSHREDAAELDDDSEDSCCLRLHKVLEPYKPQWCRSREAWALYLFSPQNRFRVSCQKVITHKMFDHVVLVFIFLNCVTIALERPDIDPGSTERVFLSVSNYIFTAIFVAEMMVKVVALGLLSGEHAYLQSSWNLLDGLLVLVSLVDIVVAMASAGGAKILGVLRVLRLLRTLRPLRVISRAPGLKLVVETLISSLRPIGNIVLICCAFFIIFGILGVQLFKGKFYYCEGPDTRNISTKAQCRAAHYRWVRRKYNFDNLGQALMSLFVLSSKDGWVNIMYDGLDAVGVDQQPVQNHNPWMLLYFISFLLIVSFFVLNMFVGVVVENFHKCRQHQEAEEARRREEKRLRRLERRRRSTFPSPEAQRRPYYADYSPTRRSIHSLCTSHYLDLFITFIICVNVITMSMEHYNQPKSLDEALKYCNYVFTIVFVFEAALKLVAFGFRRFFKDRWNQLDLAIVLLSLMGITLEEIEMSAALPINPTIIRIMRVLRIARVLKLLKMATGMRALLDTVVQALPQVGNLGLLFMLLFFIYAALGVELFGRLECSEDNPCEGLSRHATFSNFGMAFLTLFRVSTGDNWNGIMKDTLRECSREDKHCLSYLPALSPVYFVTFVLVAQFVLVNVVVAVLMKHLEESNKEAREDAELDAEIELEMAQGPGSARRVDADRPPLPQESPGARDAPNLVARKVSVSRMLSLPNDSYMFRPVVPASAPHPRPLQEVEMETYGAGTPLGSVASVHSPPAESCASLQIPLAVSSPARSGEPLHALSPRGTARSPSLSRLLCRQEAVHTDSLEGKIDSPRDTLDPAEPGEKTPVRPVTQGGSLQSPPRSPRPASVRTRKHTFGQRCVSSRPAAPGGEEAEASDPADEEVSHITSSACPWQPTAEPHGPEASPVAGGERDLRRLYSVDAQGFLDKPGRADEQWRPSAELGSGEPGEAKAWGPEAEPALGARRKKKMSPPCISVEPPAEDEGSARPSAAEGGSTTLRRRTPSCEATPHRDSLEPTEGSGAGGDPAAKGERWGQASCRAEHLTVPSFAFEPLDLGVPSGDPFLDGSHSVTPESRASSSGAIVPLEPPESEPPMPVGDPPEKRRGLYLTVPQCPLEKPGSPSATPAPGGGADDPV
Sequence of Mu-type opioid receptor (P35372 whole entry): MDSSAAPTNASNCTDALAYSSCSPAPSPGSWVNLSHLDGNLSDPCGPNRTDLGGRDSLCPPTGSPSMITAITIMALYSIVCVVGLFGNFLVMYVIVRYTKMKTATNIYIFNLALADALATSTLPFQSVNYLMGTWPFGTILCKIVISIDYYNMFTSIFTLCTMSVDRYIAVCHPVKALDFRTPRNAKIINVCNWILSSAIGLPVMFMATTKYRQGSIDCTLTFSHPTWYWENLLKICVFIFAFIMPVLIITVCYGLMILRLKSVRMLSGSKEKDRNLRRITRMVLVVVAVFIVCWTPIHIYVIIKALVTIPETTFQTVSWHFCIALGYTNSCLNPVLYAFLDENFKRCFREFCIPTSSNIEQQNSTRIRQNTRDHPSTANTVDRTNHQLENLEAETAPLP
T3 sequence (P63165 whole entry): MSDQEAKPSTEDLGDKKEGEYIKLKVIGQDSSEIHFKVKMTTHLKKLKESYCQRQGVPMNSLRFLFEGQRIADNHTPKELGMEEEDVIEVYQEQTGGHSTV
Sequence of 5-hydroxytryptamine receptor 2A (P35363 whole entry): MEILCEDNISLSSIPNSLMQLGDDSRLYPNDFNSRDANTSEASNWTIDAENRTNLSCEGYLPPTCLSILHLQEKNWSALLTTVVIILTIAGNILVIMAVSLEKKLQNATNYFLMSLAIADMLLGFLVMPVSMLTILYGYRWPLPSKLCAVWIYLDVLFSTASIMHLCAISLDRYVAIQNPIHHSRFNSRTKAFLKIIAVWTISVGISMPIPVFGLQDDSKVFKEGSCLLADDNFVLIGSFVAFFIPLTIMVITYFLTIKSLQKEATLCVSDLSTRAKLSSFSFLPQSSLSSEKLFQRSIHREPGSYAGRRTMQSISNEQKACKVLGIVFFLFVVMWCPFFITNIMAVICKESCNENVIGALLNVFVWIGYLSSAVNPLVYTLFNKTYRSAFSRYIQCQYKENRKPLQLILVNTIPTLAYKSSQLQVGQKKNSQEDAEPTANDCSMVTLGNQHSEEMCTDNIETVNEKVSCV
T5 sequence (Q9UBE0 whole entry): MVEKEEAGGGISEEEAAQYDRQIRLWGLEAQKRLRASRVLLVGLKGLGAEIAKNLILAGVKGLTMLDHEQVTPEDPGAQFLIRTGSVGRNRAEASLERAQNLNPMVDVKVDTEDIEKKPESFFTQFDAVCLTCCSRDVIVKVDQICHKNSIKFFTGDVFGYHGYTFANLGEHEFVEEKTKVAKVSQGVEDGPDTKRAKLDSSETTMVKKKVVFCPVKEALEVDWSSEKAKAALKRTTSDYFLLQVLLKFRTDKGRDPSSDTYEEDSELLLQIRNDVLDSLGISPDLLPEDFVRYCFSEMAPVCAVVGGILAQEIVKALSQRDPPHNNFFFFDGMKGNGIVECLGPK
T5 sequence (Q9UBT2 whole entry): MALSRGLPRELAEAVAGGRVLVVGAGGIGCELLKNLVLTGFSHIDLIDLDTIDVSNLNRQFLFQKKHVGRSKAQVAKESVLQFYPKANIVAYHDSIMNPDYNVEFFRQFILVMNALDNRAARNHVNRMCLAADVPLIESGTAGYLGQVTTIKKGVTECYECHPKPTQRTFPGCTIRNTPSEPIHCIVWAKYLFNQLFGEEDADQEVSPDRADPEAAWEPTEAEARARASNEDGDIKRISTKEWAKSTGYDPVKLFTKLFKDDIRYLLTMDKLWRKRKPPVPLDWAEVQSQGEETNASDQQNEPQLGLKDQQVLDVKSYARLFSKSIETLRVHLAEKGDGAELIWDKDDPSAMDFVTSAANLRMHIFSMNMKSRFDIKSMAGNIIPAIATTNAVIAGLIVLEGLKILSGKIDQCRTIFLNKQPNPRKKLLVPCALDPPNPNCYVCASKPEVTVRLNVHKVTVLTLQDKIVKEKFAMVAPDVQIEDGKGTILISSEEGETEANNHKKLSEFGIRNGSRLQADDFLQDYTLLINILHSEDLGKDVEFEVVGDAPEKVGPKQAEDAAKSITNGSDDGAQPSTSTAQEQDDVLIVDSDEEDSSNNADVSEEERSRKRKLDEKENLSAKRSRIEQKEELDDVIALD
Sequence of Nonstructural protein 1 (Q194T2 whole entry): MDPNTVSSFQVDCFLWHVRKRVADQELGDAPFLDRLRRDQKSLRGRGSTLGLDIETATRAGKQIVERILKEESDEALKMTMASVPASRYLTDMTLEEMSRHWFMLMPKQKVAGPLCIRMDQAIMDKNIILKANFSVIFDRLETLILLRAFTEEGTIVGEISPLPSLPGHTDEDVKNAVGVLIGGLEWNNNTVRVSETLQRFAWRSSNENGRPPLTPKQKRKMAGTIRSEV

Consider `O=C(N/N=C(\Cc1ncc[nH]1)c1ccccc1)c1ccncc1`, for which the IC50 on Aminopeptidase N is 21.4 µM (active); on Nonstructural protein 1, 2.46 µM (active). The concentration at half-maximal activity (AC50) was 7.38 µM (active) with INS1 and 3.42 µM (active) in [1].
For `COc1cccc(N2CCN(C(=O)c3cn(Cc4ccccc4)nc3-c3cccnc3)CC2)c1`, the IC50 in test [2] is > 80 µM (inactive).
As for `CCOC(=O)[N-]c1cn(N2CCOCC2)n[o+]1` [MOLSIDOMINE], the IC50 on Estrogen receptor is 24.7 µM (active).
On to `CN(c1ccccc1)S(=O)(=O)c1cccc(NC(=O)c2cc(=O)c3ccccc3o2)c1`, for which the AC50 in test [3] was > 52 µM (inactive); in [4] it was 38.2 µM (active).
For the compound `O=C(c1ccco1)N1CCN(Cc2ccccc2F)CC1`, the figures for the EC50 (at Mu-type opioid receptor; in test [5]) were 92.5 µM (inactive) and 7.48 µM (active), respectively.
Turning to `O=C(COC(=O)c1ccc(Cl)c(S(=O)(=O)N2CCOCC2)c1)Nc1ccc2[nH]c(O)nc2c1`, the IC50 in test [6] is 15.8 µM (active); in test [7] it was > 66.6 µM (inactive).
Consider `Cc1ccccc1CSCC(=O)NC(=O)NCc1ccco1`, for which the IC50 was 9.27 µM (active) at Estrogen receptor and 10.4 µM (active) in [8].
Consider `Nc1ccccc1N/C=C1\C(=O)NC(=O)N(CCC2=CCCCC2)C1=O`, for which the IC50 at Estrogen receptor is recorded as > 50 µM (not active). For the same compound, the concentration at half-maximal activity (AC50) in the test with INS1 was 28.2 µM (active); in test [1], 81.2 µM (active).
In the case of `COc1ccc(C#Cc2ccc([C@H]3[C@@H](CO)N4CCCCN(Cc5ccncc5)C[C@H]34)cc2)cc1`, the AC50 in test [9] was 1.87 µM (active); in test [10] it was 10.7 µM (active).
For the compound `O=C(Nc1ccc(N2CCOCC2)cc1)c1ccc(Cl)c(S(=O)(=O)N2CCCCC2)c1`, in test [2], the IC50 was > 80 µM (inactive). Further, the values for the AC50 in [11], in [12] and in [13] were 1.58 µM (active), 0.81 µM (active) and 1.18 µM (active), respectively.
With `O=C(O)c1cc(-c2ccco2)nn1-c1cccc(Cl)c1`, the IC50 was 27.1 µM (inactive) in test [6], 5.39 µM (active) in test [8] and > 66.6 µM (inactive) in [7].
As to `CCn1c(CNc2ccc(Cl)cc2)nnc1SCC(=O)OC1CCCCC1`, the 50% effective concentration (EC50) in test [14] is 2.56 µM (active).
Consider `O=C(c1ccc(CS(=O)(=O)c2ccccc2)o1)N1CCC2(CC1)OCCO2`, for which the IC50 on Estrogen receptor beta was 4.05 µM (not active).
With `COc1cc(-c2noc(C)c2/C=C/c2cccc([N+](=O)[O-])c2)cc(OC)c1OC`, the IC50 in [2] was 68.5 µM (inactive).
Regarding `Cc1ccc(S(=O)(=O)Nc2ccc3nc(-c4cccn4C)[nH]c3c2)cc1`, the EC50 in test [14] was 5.6 µM (active).
For the compound `Cc1cc(N2CCC(C(=O)Nc3ccc(F)cc3)CC2)nc(-c2ccccc2)n1`, in [14], the EC50 is 4.26 µM (active).
With `COc1ccc(CN2CCN(C(=O)c3ccco3)CC2)cc1`, the EC50 at Mu-type opioid receptor is 92.5 µM (inactive); in test [5], 1.53 µM (active).
`O=C(Nc1ccncc1)C1CCCN(S(=O)(=O)c2cccc3cccnc23)C1` (stereo not given): the IC50 in test [2] was 67.5 µM (inactive).
In the case of `O=C1C2CCCN2C(=O)N1CCCCN1CCN(c2ccccc2)CC1` (stereo not given), the EC50 on Mu-type opioid receptor is 92.4 µM (inactive); in test [5], 2.81 µM (active).
Regarding `FC(F)(F)c1cc(C(F)(F)F)c2ccc(Oc3ccccc3)nc2n1`, the half-maximal effective concentration (EC50) in test [14] is 4.65 µM (active).
For the compound `Cc1cccc(OCC(O)CN2CCN(c3ccccn3)CC2)c1C` (stereo not given), the EC50 is > 120 µM (not active) in [15]; 92.5 µM (inactive) on Mu-type opioid receptor; 25.4 µM (inactive) in test [5]; > 120 µM (not active) in test [16]; > 120 µM (not active) in [17].
`Cn1cccc1C(=O)OCC(=O)Nc1ccc2c(c1)OCCO2`: the concentration at half-maximal activity (AC50) in test [18] was 11.3 µM (active); in [4] it was 14.8 µM (active).
As for `C=CCn1c(COc2cccc(C)c2)nnc1SCC(=O)NC(=O)NCc1ccco1`, at Estrogen receptor, the IC50 is 14.8 µM (active).
Take `COc1cccc(CNC(=O)CSCc2cnn(-c3ccccc3)c2-n2cccc2)c1`: in test [14], the concentration for a half-maximal effect (EC50) was 3.66 µM (active).
As to `COc1ccccc1C#Cc1ccc([C@@H]2[C@@H](CO)N(C(=O)C3CCCC3)[C@H]2C#N)cc1`, the concentration at half-maximal activity (AC50) was 4.57 µM (active) in test [9] and > 39 µM (inactive) in test [10].
For the compound `COc1ccc2[nH]c3c(=O)n(CCCC(=O)NC4CCC(C)CC4)c(=S)[nH]c3c2c1` (stereo not given), the IC50 at SUMO-activating enzyme [19] is 38.1 µM (active); at SUMO-activating enzyme [20] it was 22.7 µM (active).
